In patent US8883486B2, “Arrestin biosensor” (Universite de Montreal, priority 2004, dated 2014):
“Also recorded” adds a separate entry of the source.

Key:
[1] = target: T1, V2R (Homo sapiens, UniProt P30518); settings: ligand is inverse agonist in the AC pathway; leads to activation of the ERK cascade; cited from earlier work
Target sequence in this assay (P30518 whole entry): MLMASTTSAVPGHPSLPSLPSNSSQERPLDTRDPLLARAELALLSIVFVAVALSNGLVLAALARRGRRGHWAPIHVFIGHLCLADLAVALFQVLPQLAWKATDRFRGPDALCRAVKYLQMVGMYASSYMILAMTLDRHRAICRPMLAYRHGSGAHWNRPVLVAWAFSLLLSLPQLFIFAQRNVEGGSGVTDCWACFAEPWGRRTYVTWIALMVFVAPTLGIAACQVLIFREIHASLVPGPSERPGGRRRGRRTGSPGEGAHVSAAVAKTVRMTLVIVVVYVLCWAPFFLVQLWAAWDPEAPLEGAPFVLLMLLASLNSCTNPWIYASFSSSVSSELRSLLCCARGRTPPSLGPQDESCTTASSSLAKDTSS
Target sequence in this assay (P32121 whole entry partner): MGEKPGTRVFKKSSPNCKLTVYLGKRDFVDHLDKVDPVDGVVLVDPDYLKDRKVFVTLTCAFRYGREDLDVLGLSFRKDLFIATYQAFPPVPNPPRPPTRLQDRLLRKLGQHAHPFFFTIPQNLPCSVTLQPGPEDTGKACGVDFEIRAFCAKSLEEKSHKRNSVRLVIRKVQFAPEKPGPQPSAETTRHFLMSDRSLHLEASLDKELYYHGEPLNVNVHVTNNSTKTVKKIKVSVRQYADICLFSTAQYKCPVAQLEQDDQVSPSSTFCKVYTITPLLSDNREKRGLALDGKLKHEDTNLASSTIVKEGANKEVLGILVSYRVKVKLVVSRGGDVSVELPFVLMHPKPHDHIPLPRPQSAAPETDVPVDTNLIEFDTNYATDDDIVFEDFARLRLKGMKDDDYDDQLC

[2] = target: T1, V2R; experiment: Intramolecular BRET1 of double-brilliance β-arr (Luc-β-arr-YFP): conformational change of β-arr; type: cell-based; design: expressed in transfected cells; host or cells: HEK293; settings: HEK293 cells co-expressing V2R and Luc-β-arr-YFP
Target sequence in this assay (P30518 whole entry): as the sequence (P30518 whole entry) above
Method: HEK293 cells were transfected with the indicated plasmids and BRET was measured at 25° C. in the presence of coelenterazine h. […] Data are the mean±s.e.m. of at least three independent experiments. *P<0.01 between treated and control condition.
The basal BRET signals were subtracted from each condition to express the data as ligand-induced BRET increase.
BRET assays. […] Briefly, cells were distributed in 96-well microplates (Corning, Corning, USA) and incubated with or without agonist for the indicated time at 25° C. The appropriate Luc substrate was added to a final concentration of 5 mM, either simultaneously with the agonist (time course) or following agonist treatment (single measurement or dose dependency), and readings were collected using a Multilabel Reader Mithras LB 940 (Berthold Technologies, Bad Wildbad, Germany). […] The BRET signal was determined by calculating the ratio of the light emitted by the fluorescent acceptor and the light emitted by Luc. The values were corrected by subtracting the background BRET signals detected when Luc-β-arr was expressed alone.

SMILES: CCOc1ccc2c(c1)C1(CCC(OCCN3CCOCC3)CC1)C(=O)N2S(=O)(=O)c1ccc(C(=O)NC(C)(C)C)cc1OC (centres unmarked) [SR121463]
- recruitment of β-arr [1]: induced the recruitment of β-arr
- ligand-induced intramolecular BRET increase [2]: significantly lower than that induced by AVP treatment; also recorded: can promote an increase in the BRET signal
